# Where “and” joins values, the source holds several entries; their conditions need not be identical. Identical values can stand only once.
# Legend:
# [1] = test system: hippocampal proteins; experiment: Hippocampal LC-MS/MS proteomics and PANTHER pathway overrepresentation; format: in vivo, Male Wistar rats; conditions: hippocampus
# Description: These treatment groups were used for the molecular assessment of addiction-linked markers.
# Due to incompatibilities between components of the lysis buffer in the High-Performance Liquid Chromatography (HPLC) mass spectrometer the samples were first precipitated in 100% (w/v) Trichloroacetic acid (TCA). 1 volume of TCA stock was added to 4 volumes of protein sample. The mixture was incubated for 10 mins at 4° C. before centrifugation at 14,000 RPM for 5 mins. The supernatant was discarded and the pellet was washed in acetone. The acetone was then discarded and the pellet was air-dried before resuspension in 6M urea (Sigma) made in 50 mM ammonium bicarbonate (ABC, Sigma). 100 mM dithiothreitol (DTT) was added to the sample for a final concentration of 5 mM and the sample was incubated while vortexing at 60° C. for 30 mins. Next, 200 mM iodoacetemide (IAA, Sigma) solution was added and the sample was incubated in the dark at room temperature for 30 mins. The sample was then diluted with 50 mM ABC to give a final concentration of ≤2M Urea before the addition of trypsin. 50 μl of reduced, alkylated sample was added to a vial of trypsin singles, proteomic grade (Sigma) and incubated at 37° C. overnight while vortexing. 1% acetic acid (AA) was added to the sample to stop the trypsination the following day. Sample clean-up was performed using Stage Tips for a 10 μl pipette with a 0.6 μl C18 resin (Merck) and clean up was carried out as follows; Tip was equilibrated (10 μl of 50% acetonitrile (ACN) in 0.1% trifluoroacetic acid (TFA) was aspirated into the tip and dispensed to waste x2, 10 μl of 0.1% TFA was aspirated and dispensed to waste x2), peptides were bound to resin and washed (10 μl of sample was aspirated and dispensed x5 cycles, 10 μl of 0.1% TFA was aspirated and dispensed to waste x2) before being eluted into a collecting tube containing 30 μl of 50% ACN in 0.1% TFA (aspirate and dispense the sample through Stage Tip x3). This process was repeated three times for each sample using the same Stage Tip and collection tube. Samples were dried in a vacuum centrifuge for 30 mins at 60° C. and resuspended in 30 μl of Buffer A (97% water, 2.5% ACN and 0.5% AA) and stored at −20° C.
# Digested samples were run on a Thermo Scientific Q Exactive mass spectrometer connected to a Dionex Ultimate 3000 (RSLCnano) chromatography system. Tryptic peptides were resuspended in 0.1% formic acid. Each sample was loaded onto a fused silica emitter (75 μm ID, pulled using a laser puller (Sutter Instruments P2000)), packed with Recrocil Pur C18 (1.9 μm) reverse phase media and was separated by an increasing acetonitrile gradient over 47 mins at a flow rate of 250 nL/min. The mass spectrometer was operated in positive ion mode with a capillary temperature of 320° C., and with a potential of 2300V applied to the frit. All readings were acquired with the mass spectrometer operating in automatic data dependent switching mode. A high resolution (70,000) MS scan was performed using the Q Exactive to select the most intense ions prior to MS/MS analysis using Higher-energy collisional dissociation (HCD). To identify peptides and proteins the MS/MS spectra were searched against the rat UniProt database. The database searches were performed with carbamidomethylation (C) as a fixed modification and acetylation (protein N terminus) and oxidation (M) as variable modifications. Filtering by a false discovery rate (FDR) was applied for peptides and proteins (0.01). For the generation of label-free quantitative (LFQ) ion intensities for protein profiles, signals of corresponding peptides in different LCMS/MS runs were matched by MaxQuant.
# The Perseus statistical software contained in the MaxQuant package was used to analyze ion intensities (LFQ Intensity). Protein identities were filtered to eliminate the identifications from the reverse database, only identified by site and common contaminants.
# [2] = test system: rats; experiment: Forced swim test; format: in vivo; conditions: cohort 2; for immobility or time spent swimming: between treatment groups
# Description: In this instance the animals were 9 weeks old at the initiation of drug exposures and we selected just the high (20 mg/kg) dose of 5-MeO-DMT from the molecular study. […] Due to the number of behavioral paradigms to be completed by each animal we divided the study into two cohorts staggered by two weeks with 8 animals coming from each cohort to make up the 16 animals for each treatment group. 23 hours after 5-MeO-DMT administration the animals were introduced to the open field arena where they were allowed to freely explore the area for 5 mins. Following the open field test (OFT) animals were returned to their home cage for 2 hours before beginning either the elevated plus maze (EPM) or pre-pulse inhibition (PPI) testing. 24 hours after completing the OFT animals were returned to the chamber for the first session in novel object (NO1) testing. The animals were returned to their home cage for 2 hours before beginning the EPM or PPI test. 24 hours after NO1 the animals returned to the open field chamber for the second session in novel object (N02) testing. After completing N02 animals were returned to their home cage for 2 hours before they underwent the forced swim test (FST) pre-test. 24 hours later the animals were returned to the FS cylinders for the FST. Upon completion of the FST all animals were euthanized. A timeline of this experimental cohort is described in FIG. 8A.
# The experiment was conducted as described for cohort 1 for the first 13 days of injections. There are a number of notable differences in experimental procedures between the two cohorts of animals to be highlighted. […] Finally, the dose of 5-MeO-DMT was reduced to 10 mg/kg. […]
# The FST apparatus consisted of a clear Plexiglas cylinder measuring 80 cm tall, 20 cm in diameter and filled with 40 cm of 24+1° C. water. […] 24 hours later, rats were again placed in the FST apparatus for 5 min and their activity was video recorded (FIG. 12A-12B). Each video was scored for immobility, swimming, and climbing behavior by trained blinded observers.
structure (smiles),measurement,setting,value
"COC(=O)[C@H]1[C@@H](OC(=O)c2ccccc2)C[C@@H]2CC[C@H]1N2C.Cl [cocaine, cocaine hydrochloride, reference compound]",differentially expressed proteins vs saline+vehicle,"[1]; 24 h, cocaine+vehicle, p<0.05, fold change ≥±20%",340 proteins
same,pathways significantly overrepresented (PANTHER),[1]; cocaine group,157 pathways
same,top overrepresented pathways,[1]; cocaine-experienced animals,"regulation of metabolic processes, protein translation and synaptic signalling"
same,immobility or time spent swimming,[2],no differences in immobility or time spent swimming
"COc1ccc2[nH]cc(CCN(C)C)c2c1 [5-MeO-DMT, 5-methoxy-N,N-dimethyltryptamine]","of the 118 5-MeO-DMT differentially expressed proteins, shared with the combination",[1]; 10 mg/kg 5-MeO-DMT,45 proteins
same,pathways significantly overrepresented (PANTHER),[1]; 10 mg/kg 5-MeO-DMT,16 pathways
same,top overrepresented pathways,[1]; 10 mg/kg 5-MeO-DMT,altered protein translation and synthesis
same,"of the 120 5-MeO-DMT differentially expressed proteins, shared with the combination",[1]; 20 mg/kg 5-MeO-DMT,57 proteins
same,pathways significantly overrepresented (PANTHER),[1]; 20 mg/kg 5-MeO-DMT,24 pathways
same,top overrepresented pathways,[1]; 20 mg/kg 5-MeO-DMT,"regulation of synapse organisation, structure and activity as well as modulating chemical transmission"
same,differentially expressed proteins vs saline+vehicle,"[1]; 24 h, 10 mg/kg 5-MeO-DMT",118 proteins
same,differentially expressed proteins shared between the two concentrations,"[1]; 24 h, 10 mg/kg and 20 mg/kg 5-MeO-DMT alone",32 proteins
same,differentially expressed proteins vs saline+vehicle,"[1]; 24 h, 20 mg/kg 5-MeO-DMT",120 proteins
same,differentially expressed proteins vs saline+vehicle,"[1]; 24 h, cocaine+10 mg/kg 5-MeO-DMT, 10 mg/kg",541 proteins and 544 proteins
same,differentially expressed proteins vs saline+vehicle,"[1]; 24 h, cocaine+20 mg/kg 5-MeO-DMT",221 proteins
same,"of the 340 cocaine differentially expressed proteins, remaining in the combination",[1]; cocaine+10 mg/kg 5-MeO-DMT,245 proteins
same,pathways significantly overrepresented (PANTHER),[1]; cocaine+10 mg/kg 5-MeO-DMT,309 pathways
same,top overrepresented pathways,[1]; cocaine+10 mg/kg 5-MeO-DMT,"NAD and NADH metabolism, positive regulation of lamellipodium assembly and modulation of synaptic signaling"
same,"of the 340 cocaine differentially expressed proteins, remaining in the combination",[1]; cocaine+20 mg/kg 5-MeO-DMT,85 proteins
same,pathways significantly overrepresented (PANTHER),[1]; cocaine+20 mg/kg 5-MeO-DMT,67 pathways
same,top overrepresented pathways,[1]; cocaine+20 mg/kg 5-MeO-DMT,"positive regulation of telomerase activity, negative regulation of apoptosis and regulation of synapse organization, structure and activity"
same,differentially expressed proteins shared between the combination groups,[1]; cocaine+10 and cocaine+20 mg/kg 5-MeO-DMT,153 proteins
same,immobility or time spent swimming,[2],no differences in immobility or time spent swimming
same,climbing time,[2]; cocaine and 5-MeO-DMT (10 mg/kg) combination relative to control,significant increase in climbing time

# — patent US20240299353A1, “COMPOSITIONS AND METHODS FOR TREATING […] 5-MEO-DMT” (Alvarius Pharmaceuticals Ltd., priority 2021, published 2024)
